Test results published in patent publication US6472348B1, “Pyridone derivatives and herbicides” (Kumiai Chemical Industry Co., Ltd., priority 1996, dated 2002).

What was measured:
Format in all cases: in vivo
barnyardgrass (Ec) [1] = assay: Test Example 1: herbicidal effects by paddy field soil treatment; conditions: 100 g of the active ingredient per 10 ares, 21st day after the application, index 0-5 of Table 47;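 note: grade of growth control; 5 = at least 90%; 4 = 70 to 90%; 3 = 50 to 70%; 2 = 30 to 50%; 1 = 10 to 30%; 0 = under 10%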
Procedure, shortened: (§1)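 Flooded paddy-soil pots (3 cm water) sown after puddling/leveling; treatment 100 g a.i./10 ares; greenhouse culture; herbicidal effect rated visually on a scoring scale at 21 d post-application.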

bulrush (Sc) = assay: as above; conditions: 100 g of the active ingredient per 10 ares, 21st day after the application, index 0-5 of Table 47;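 note: grade of growth control; 5 = at least 90%; 4 = 70 to 90%; 3 = 50 to 70%; 2 = 30 to 50%; 1 = 10 to 30%; 0 = under 10%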
Procedure, shortened: as §1

monochoria (Mo) = assay: as above; conditions: 100 g of the active ingredient per 10 ares, 21st day after the application, index 0-5 of Table 47;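 note: grade of growth control; 5 = at least 90%; 4 = 70 to 90%; 3 = 50 to 70%; 2 = 30 to 50%; 1 = 10 to 30%; 0 = under 10%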
Procedure, shortened: as §1

Digitaria ciliaris (Di) = assay: Test Example 2: herbicidal effects by upland field soil treatment; conditions: 100 g of the active ingredient per 10 ares;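 note: grade of growth control; 5 = at least 90%; 4 = 70 to 90%; 3 = 50 to 70%; 2 = 30 to 50%; 1 = 10 to 30%; 0 = under 10%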
Text: (§2) (Test on Herbicidal Effects by Upland Field Soil Treatment)

barnyardgrass (Ec) [2] = assay: as above; conditions: 100 g of the active ingredient per 10 ares
Text: as §2

[3] = tested on: common lambsquarters (Ch); assay: as above; conditions: 100 g of the active ingredient per 10 ares
Text: as §2

pale smartweed (Po) [4] = assay: as above; conditions: 100 g of the active ingredient per 10 ares
Text: as §2

rice flatsedge (Ci) [5] = assay: as above; conditions: 100 g of the active ingredient per 10 ares
Text: as §2

slender amaranth (Am) [6] = assay: as above; conditions: 100 g of the active ingredient per 10 ares
Text: as §2

Diaitaria ciliaris (Di) = assay: Test Example 3: herbicidal effects by upland field foliage treatment; design: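 grade of growth control; 5 = at least 90%; 4 = 70 to 90%; 3 = 50 to 70%; 2 = 30 to 50%; 1 = 10 to 30%; 0 = under 10%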
Procedure, shortened: (§3)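 Two-week-old greenhouse seedlings, raised in sand-filled pots (120 cm^2) with seed covered by soil, receive a foliar application. Effects are then evaluated by standard grades 14 days later, plants remaining in the greenhouse meanwhile.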

barnyardgrass (Ec) [7] = assay: as above; design: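 grade of growth control; 5 = at least 90%; 4 = 70 to 90%; 3 = 50 to 70%; 2 = 30 to 50%; 1 = 10 to 30%; 0 = under 10%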
Procedure, shortened: as §3

[8] = tested on: common lambsquarters (Ch); assay: as above; design: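 grade of growth control; 5 = at least 90%; 4 = 70 to 90%; 3 = 50 to 70%; 2 = 30 to 50%; 1 = 10 to 30%; 0 = under 10%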
Procedure, shortened: as §3

pale smartweed (Po) [9] = assay: as above; design: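 grade of growth control; 5 = at least 90%; 4 = 70 to 90%; 3 = 50 to 70%; 2 = 30 to 50%; 1 = 10 to 30%; 0 = under 10%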
Procedure, shortened: as §3

rice flatsedge (Ci) [10] = assay: as above; design: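 grade of growth control; 5 = at least 90%; 4 = 70 to 90%; 3 = 50 to 70%; 2 = 30 to 50%; 1 = 10 to 30%; 0 = under 10%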
Procedure, shortened: as §3

slender amaranth (Am) [11] = assay: as above; design: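 grade of growth control; 5 = at least 90%; 4 = 70 to 90%; 3 = 50 to 70%; 2 = 30 to 50%; 1 = 10 to 30%; 0 = under 10%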
Procedure, shortened: as §3

[12] = 21st day after the application, index 0-5 of Table 47
[13] = 100 g of the active ingredient per 10 ares, evaluated on the 14th day after treatment
[14] = evaluated on the 21st day after application
[15] = 100 g active ingredient per 10 ares, evaluated 14th day after treatment

Row | Compound | Herbicidal effects Ec (barnyardgrass (Ec) [1]) | Herbicidal effects Sc (bulrush (Sc)) | Herbicidal effects Mo (monochoria (Mo)) | Herbicidal effects Di (Diaitaria ciliaris (Di); [13]) | Herbicidal effects Ec (barnyardgrass (Ec) [7]; [13]) | Herbicidal effects Ch [8, 13] | Herbicidal effects Po (pale smartweed (Po) [9]; [13]) | Herbicidal effects Ci (rice flatsedge (Ci) [10]; [13]) | Herbicidal effects Di (Digitaria ciliaris (Di); [14]) | Herbicidal effects Ec (barnyardgrass (Ec) [2]; [14]) | Herbicidal effects Ch [3, 14] | Herbicidal effects Po (pale smartweed (Po) [4]; [14]) | Herbicidal effects Ci (rice flatsedge (Ci) [5]; [14]) | Herbicidal effects Am (slender amaranth (Am) [6]; [14]) | Herbicidal effects Di (Diaitaria ciliaris (Di); [15]) | Herbicidal effects Ec (barnyardgrass (Ec) [7]; [15]) | Herbicidal effects Ch [8, 15] | Herbicidal effects Po (pale smartweed (Po) [9]; [15]) | Herbicidal effects Ci (rice flatsedge (Ci) [10]; [15]) | Herbicidal effects Am (slender amaranth (Am) [11]; [15]) | other results
1 | CC(C)COc1cc(-c2ccc(C(F)(F)F)n(C)c2=O)c(F)cc1Cl [1-168] | 5 | 5 | 5 | 5 | 5 | 5 | 5 | 5 | – | – | – | – | – | – | – | – | – | – | – | – | Herbicidal effects Di (Digitaria ciliaris (Di); [12]): 5; Herbicidal effects Ec (barnyardgrass (Ec) [2]; [12]): 5; Herbicidal effects Ch [3, 12]: 5; Herbicidal effects Po (pale smartweed (Po) [4]; [12]): 5; Herbicidal effects Ci (rice flatsedge (Ci) [5]; [12]): 5; Herbicidal effects Am (slender amaranth (Am) [6]; [12]): 5; Herbicidal effects Am (slender amaranth (Am) [11]; [13]): 5
2 | CC(C)OCCOc1cc(-c2ccc(C(F)(F)F)n(C)c2=O)c(F)cc1Cl [1-169] | 5 | 5 | 5 | 5 | 5 | 5 | 5 | 5 | 5 | 5 | 5 | 5 | 5 | 5 | – | – | – | – | – | – | Herbicidal effects Am (slender amaranth (Am) [11]; [13]): 5
3 | CC(C)=CCOc1cc(-c2ccc(C(F)(F)F)n(C)c2=O)c(F)cc1Cl [1-174] | 5 | 5 | 5 | 5 | 5 | 5 | 5 | 5 | 5 | 5 | 5 | 5 | 5 | 5 | – | – | – | – | – | – | Herbicidal effects Am (slender amaranth (Am) [11]; [13]): 5
4 | CC#CCOc1cc(-c2ccc(C(F)(F)F)n(C)c2=O)c(F)cc1Cl [1-175] | 5 | 5 | 5 | 5 | 5 | 5 | 5 | 5 | 5 | 5 | 5 | 5 | 5 | 5 | – | – | – | – | – | – | Herbicidal effects Am (slender amaranth (Am) [11]; [13]): 5
5 | C=CCOc1cc(Cl)cc(F)c1-c1ccc(C(F)(F)F)n(C)c1=O [1′-3] | 5 | 4 | 5 | – | – | – | – | – | 5 | 5 | 5 | 5 | 5 | 5 | 5 | 5 | 5 | 5 | 5 | 5 | –
6 | C#CC(CC)Oc1cc(Cl)cc(F)c1-c1ccc(C(F)(F)F)n(C)c1=O (stereo not drawn) [1′-6] | 5 | 5 | 5 | – | – | – | – | – | 5 | 5 | 5 | 5 | 5 | 5 | 5 | 5 | 5 | 5 | 5 | 5 | –
7 | C#CCN1C(=O)COc2ccc(-c3ccc(C(F)(F)F)n(C)c3=O)cc21 [2-29] | 5 | 5 | 5 | – | – | – | – | – | 5 | 5 | 5 | 5 | 5 | 5 | 5 | 5 | 5 | 5 | 5 | 5 | –
8 | CC(=O)c1cc(-c2ccc(C(F)(F)F)n(C)c2=O)c(F)cc1Cl [Compound 1-190] | 5 | 5 | 5 | – | – | – | – | – | 5 | 5 | 5 | 5 | 5 | 5 | 5 | 5 | 5 | 5 | 5 | 5 | –
9 | CC(C)C(O)c1cc(-c2ccc(C(F)(F)F)n(C)c2=O)c(F)cc1Cl (stereo not drawn) [Compound 1-195] | 5 | 5 | 5 | – | – | – | – | – | 5 | 5 | 5 | 5 | 5 | 5 | 5 | 5 | 5 | 5 | 5 | 5 | –
10 | CCOCOc1cc(-c2ccc(C(F)(F)F)n(C)c2=O)c(Cl)cc1Cl [Compound 1-206] | 5 | 5 | 5 | – | – | – | – | – | 5 | 5 | 5 | 5 | 5 | 5 | 5 | 5 | 5 | 5 | 5 | 5 | –
11 | C#CCNC(=O)COc1cc(-c2ccc(C(F)(F)F)n(C)c2=O)c(F)cc1Cl [Compound 1-210] | 5 | 5 | 5 | – | – | – | – | – | 4 | 5 | 5 | 5 | 5 | 5 | 5 | 4 | 5 | 5 | 5 | 5 | –
12 | COCCOc1cc(-c2ccc(C(F)(F)F)n(C)c2=O)c(Cl)cc1Cl [Compound 1-211] | 5 | 5 | 5 | – | – | – | – | – | 5 | 5 | 5 | 5 | 5 | 5 | 5 | 4 | 5 | 5 | 5 | 5 | –
13 | CNS(=O)(=O)c1cc(-c2ccc(C(F)(F)F)n(C)c2=O)c(Cl)cc1Cl [Compound 1-256] | 5 | 5 | 5 | – | – | – | – | – | 5 | 5 | 5 | 5 | 5 | 5 | 5 | 5 | 5 | 5 | 5 | 5 | –
